Reference: patent US11168364B2, “Method and system for sequencing nucleic acids” (priority 2016, dated 2021)

Biological target: T1, Bsu DNA polymerase large fragment / primed template nucleic acid (Bacillus subtilis, UniProt O34996)
T1 construct: 350 U/ml Bsu DNA polymerase large fragment
T1 sequence (O34996 297-880 limits assumed): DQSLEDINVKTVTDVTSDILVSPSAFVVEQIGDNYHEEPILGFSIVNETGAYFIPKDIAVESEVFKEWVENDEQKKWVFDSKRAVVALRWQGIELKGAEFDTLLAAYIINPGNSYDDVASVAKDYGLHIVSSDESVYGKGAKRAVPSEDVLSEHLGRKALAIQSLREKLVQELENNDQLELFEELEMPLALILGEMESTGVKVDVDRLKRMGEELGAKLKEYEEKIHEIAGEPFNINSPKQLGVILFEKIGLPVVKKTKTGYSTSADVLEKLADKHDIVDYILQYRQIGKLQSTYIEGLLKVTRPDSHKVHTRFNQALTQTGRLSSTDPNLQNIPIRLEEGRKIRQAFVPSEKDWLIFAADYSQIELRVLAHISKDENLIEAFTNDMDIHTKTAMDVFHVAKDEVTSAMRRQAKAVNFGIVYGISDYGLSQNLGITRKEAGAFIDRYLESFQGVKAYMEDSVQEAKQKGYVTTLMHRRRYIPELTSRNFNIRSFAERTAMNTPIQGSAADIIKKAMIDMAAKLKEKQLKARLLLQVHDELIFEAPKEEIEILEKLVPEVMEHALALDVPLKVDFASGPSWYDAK
Assay: Biolayer interferometry of polymerase binding to immobilized primed template with cognate or non-cognate nucleotide, salt titration (Example 19)
Conditions: for Ternary Complex Signal (Δλ, nm): dCTP (cognate); for Binary Complex Signal (Δλ, nm): dGTP (non-cognate)
Text: A FORTEBIO® (Menlo Park, Calif.) OCTET® instrument employing biolayer interferometry to measure binding reactions at the surface of a fiber optic tip was used in a multiwell plate format to investigate differential stability of binary and ternary complexes. Template strands biotinylated at their 5′-ends were used to immobilize the primed template nucleic acid onto fiber optic tips functionalized with streptavidin (SA) according to standard procedures. […] Tips were first equilibrated in a Tris-buffered solution containing 30 mM Tris-HCl (pH 8.0), and 0.1 mM EDTA before commencing the cycling protocol. Independent binding reactions for the two test nucleotides (i.e., cognate and non-cognate nucleotides) were carried out in the presence of concentrations of NaCl, KCl, or potassium glutamate that varied from 50 mM to 500 mM. […] In all instances, the reaction mixture used during the examination step contained Tris-HCl (pH 8.0), 0.01% Tween-20, 100 μg/ml BSA, 2 mM NiSO4, 350 U/ml Bsu DNA polymerase large fragment; and one of the nucleotides at a concentration of 100 μM (dCTP was used as a cognate nucleotide, and dGTP was used as a non-cognate nucleotide). Following each examination step, tips were exposed to a buffer containing 30 mM Tris-HCl (pH 8.0), 500 mM KCl, 2 mM EDTA and 0.05% Tween-20 for 20 seconds to strip enzyme complexes from the primed template nucleic acid. The stripping step was followed by a 15 second exposure to examination buffer without enzyme, dNTP or divalent cations to regenerate tips for the next cycle of examination. When using a single contacting step to effect binding of polymerase and nucleotide to the primed template nucleic acid, the binding step was 45 seconds long, with binding interactions being monitored continuously. This was accomplished by contacting the primed template nucleic acid with a single solution that included the polymerase and test nucleotide. Results from interferometry monitoring were analyzed to identify formation of ternary complexes (i.e., identifying cognate nucleotide) or binary complexes (i.e., identifying non-cognate nucleotide).

[1] = KCl 50 mM + fixed 160 mM potassium glutamate
[2] = KCl 75 mM + fixed 160 mM potassium glutamate
[3] = KCl 100 mM + fixed 160 mM potassium glutamate
[4] = KCl 125 mM + fixed 160 mM potassium glutamate
[5] = KCl 150 mM + fixed 160 mM potassium glutamate
[6] = KCl 175 mM + fixed 160 mM potassium glutamate
[7] = KCl 200 mM + fixed 160 mM potassium glutamate
[8] = KCl 225 mM + fixed 160 mM potassium glutamate
[9] = KCl 250 mM + fixed 160 mM potassium glutamate
[10] = KCl 275 mM + fixed 160 mM potassium glutamate
[11] = KCl 300 mM + fixed 160 mM potassium glutamate
[12] = KCl 325 mM + fixed 160 mM potassium glutamate
[13] = KCl 350 mM + fixed 160 mM potassium glutamate
[14] = KCl 375 mM + fixed 160 mM potassium glutamate
[15] = KCl 400 mM + fixed 160 mM potassium glutamate
[16] = KCl 425 mM + fixed 160 mM potassium glutamate
[17] = KCl 450 mM + fixed 160 mM potassium glutamate
[18] = KCl 475 mM + fixed 160 mM potassium glutamate
[19] = KCl 500 mM + fixed 160 mM potassium glutamate

[Cl-].[K+] [KCl]
Fold Enhancement (Ternary/Binary) (KCl 50 mM): 1.03
Fold Enhancement (Ternary/Binary) [1]: 1.24
Ternary Complex Signal (Δλ, nm) [1]: 1.57 nm
Binary Complex Signal (Δλ, nm) [1]: 1.27 nm
Ternary Complex Signal (Δλ, nm) (KCl 50 mM): 2.98 nm
Binary Complex Signal (Δλ, nm) (KCl 50 mM): 2.90 nm
Fold Enhancement (Ternary/Binary) (KCl 75 mM): 0.97
Fold Enhancement (Ternary/Binary) [2]: 1.41
Ternary Complex Signal (Δλ, nm) [2]: 1.49 nm
Binary Complex Signal (Δλ, nm) [2]: 1.06 nm
Ternary Complex Signal (Δλ, nm) (KCl 75 mM): 2.59 nm
Binary Complex Signal (Δλ, nm) (KCl 75 mM): 2.68 nm
Fold Enhancement (Ternary/Binary) (KCl 100 mM): 1.00
Fold Enhancement (Ternary/Binary) [3]: 1.71
Ternary Complex Signal (Δλ, nm) [3]: 1.52 nm
Binary Complex Signal (Δλ, nm) [3]: 0.89 nm
Ternary Complex Signal (Δλ, nm) (KCl 100 mM): 2.29 nm
Binary Complex Signal (Δλ, nm) (KCl 100 mM): 2.29 nm
Fold Enhancement (Ternary/Binary) (KCl 125 mM): 0.98
Fold Enhancement (Ternary/Binary) [4]: 2.05
Ternary Complex Signal (Δλ, nm) [4]: 1.44 nm
Binary Complex Signal (Δλ, nm) [4]: 0.70 nm
Ternary Complex Signal (Δλ, nm) (KCl 125 mM): 1.93 nm
Binary Complex Signal (Δλ, nm) (KCl 125 mM): 1.98 nm
Fold Enhancement (Ternary/Binary) (KCl 150 mM): 1.00
Fold Enhancement (Ternary/Binary) [5]: 2.46
Ternary Complex Signal (Δλ, nm) [5]: 1.40 nm
Binary Complex Signal (Δλ, nm) [5]: 0.57 nm
Ternary Complex Signal (Δλ, nm) (KCl 150 mM): 1.67 nm
Binary Complex Signal (Δλ, nm) (KCl 150 mM): 1.67 nm
Fold Enhancement (Ternary/Binary) (KCl 175 mM): 0.99
Fold Enhancement (Ternary/Binary) [6]: 3.31
Ternary Complex Signal (Δλ, nm) [6]: 1.30 nm
Binary Complex Signal (Δλ, nm) [6]: 0.39 nm
Ternary Complex Signal (Δλ, nm) (KCl 175 mM): 1.41 nm
Binary Complex Signal (Δλ, nm) (KCl 175 mM): 1.43 nm
Fold Enhancement (Ternary/Binary) (KCl 200 mM): 1.08
Fold Enhancement (Ternary/Binary) [7]: 4.15
Ternary Complex Signal (Δλ, nm) [7]: 1.19 nm
Binary Complex Signal (Δλ, nm) [7]: 0.29 nm
Ternary Complex Signal (Δλ, nm) (KCl 200 mM): 1.30 nm
Binary Complex Signal (Δλ, nm) (KCl 200 mM): 1.20 nm
Fold Enhancement (Ternary/Binary) (KCl 225 mM): 1.17
Fold Enhancement (Ternary/Binary) [8]: 5.35
Ternary Complex Signal (Δλ, nm) [8]: 1.12 nm
Binary Complex Signal (Δλ, nm) [8]: 0.21 nm
Ternary Complex Signal (Δλ, nm) (KCl 225 mM): 1.20 nm
Binary Complex Signal (Δλ, nm) (KCl 225 mM): 1.03 nm
Fold Enhancement (Ternary/Binary) (KCl 250 mM): 1.35
Fold Enhancement (Ternary/Binary) [9]: 7.02
Ternary Complex Signal (Δλ, nm) [9]: 0.98 nm
Binary Complex Signal (Δλ, nm) [9]: 0.14 nm
Ternary Complex Signal (Δλ, nm) (KCl 250 mM): 1.11 nm
Binary Complex Signal (Δλ, nm) (KCl 250 mM): 0.82 nm
Fold Enhancement (Ternary/Binary) (KCl 275 mM): 1.51
Fold Enhancement (Ternary/Binary) [10]: 9.07
Ternary Complex Signal (Δλ, nm) [10]: 0.88 nm
Binary Complex Signal (Δλ, nm) [10]: 0.10 nm
Ternary Complex Signal (Δλ, nm) (KCl 275 mM): 1.02 nm
Binary Complex Signal (Δλ, nm) (KCl 275 mM): 0.67 nm
Fold Enhancement (Ternary/Binary) (KCl 300 mM): 2.04
Fold Enhancement (Ternary/Binary) [11]: 8.34
Ternary Complex Signal (Δλ, nm) [11]: 0.76 nm
Binary Complex Signal (Δλ, nm) [11]: 0.09 nm
Ternary Complex Signal (Δλ, nm) (KCl 300 mM): 0.96 nm
Binary Complex Signal (Δλ, nm) (KCl 300 mM): 0.47 nm
Fold Enhancement (Ternary/Binary) (KCl 325 mM): 1.97
Fold Enhancement (Ternary/Binary) [12]: 8.97
Ternary Complex Signal (Δλ, nm) [12]: 0.65 nm
Binary Complex Signal (Δλ, nm) [12]: 0.07 nm
Ternary Complex Signal (Δλ, nm) (KCl 325 mM): 0.71 nm
Binary Complex Signal (Δλ, nm) (KCl 325 mM): 0.36 nm
Fold Enhancement (Ternary/Binary) (KCl 350 mM): 3.72
Fold Enhancement (Ternary/Binary) [13]: 7.94
Ternary Complex Signal (Δλ, nm) [13]: 0.54 nm
Binary Complex Signal (Δλ, nm) [13]: 0.07 nm
Ternary Complex Signal (Δλ, nm) (KCl 350 mM): 0.64 nm
Binary Complex Signal (Δλ, nm) (KCl 350 mM): 0.17 nm
Fold Enhancement (Ternary/Binary) (KCl 375 mM): 3.21
Fold Enhancement (Ternary/Binary) [14]: 12.46
Ternary Complex Signal (Δλ, nm) [14]: 0.45 nm
Binary Complex Signal (Δλ, nm) [14]: 0.04 nm
Ternary Complex Signal (Δλ, nm) (KCl 375 mM): 0.49 nm
Binary Complex Signal (Δλ, nm) (KCl 375 mM): 0.15 nm
Fold Enhancement (Ternary/Binary) (KCl 400 mM): 9.48
Fold Enhancement (Ternary/Binary) [15]: 13.75
Ternary Complex Signal (Δλ, nm) [15]: 0.37 nm
Binary Complex Signal (Δλ, nm) [15]: 0.03 nm
Ternary Complex Signal (Δλ, nm) (KCl 400 mM): 0.39 nm
Binary Complex Signal (Δλ, nm) (KCl 400 mM): 0.04 nm
Fold Enhancement (Ternary/Binary) (KCl 425 mM): 85.77
Fold Enhancement (Ternary/Binary) [16]: 13.28
Ternary Complex Signal (Δλ, nm) [16]: 0.31 nm
Binary Complex Signal (Δλ, nm) [16]: 0.02 nm
Ternary Complex Signal (Δλ, nm) (KCl 425 mM): 0.28 nm
Binary Complex Signal (Δλ, nm) (KCl 425 mM): 0.00 nm
Fold Enhancement (Ternary/Binary) (KCl 450 mM): 16.47
Fold Enhancement (Ternary/Binary) [17]: 7.24
Ternary Complex Signal (Δλ, nm) [17]: 0.25 nm
Binary Complex Signal (Δλ, nm) [17]: 0.03 nm
Ternary Complex Signal (Δλ, nm) (KCl 450 mM): 0.19 nm
Binary Complex Signal (Δλ, nm) (KCl 450 mM): 0.01 nm
Fold Enhancement (Ternary/Binary) (KCl 475 mM): 4.89
Fold Enhancement (Ternary/Binary) [18]: 4.54
Ternary Complex Signal (Δλ, nm) [18]: 0.22 nm
Binary Complex Signal (Δλ, nm) [18]: 0.05 nm
Ternary Complex Signal (Δλ, nm) (KCl 475 mM): 0.14 nm
Binary Complex Signal (Δλ, nm) (KCl 475 mM): 0.03 nm
Fold Enhancement (Ternary/Binary) (KCl 500 mM): 2.69
Fold Enhancement (Ternary/Binary) [19]: 2.97
Ternary Complex Signal (Δλ, nm) [19]: 0.21 nm
Binary Complex Signal (Δλ, nm) [19]: 0.07 nm
Ternary Complex Signal (Δλ, nm) (KCl 500 mM): 0.09 nm
Binary Complex Signal (Δλ, nm) (KCl 500 mM): 0.04 nm
salt concentration of maximum signal ratios for ternary over binary complexes (no glutamate salt): about 450 mM
